Measurements published in US20210205382A1, “METHODS AND COMPOSITIONS FOR USING METAL ELEMENTS IN AAV GENE THERAPY” (priority 2018, published 2021).

Experiments:
[1] = system: HeLa cells infected with scAAV2-EGFP; experiment: Transduction efficiency of scAAV2-EGFP in HeLa cells (EGFP expression, fluorescent microscopy); settings: for concentration giving maximal increase in transgene expression / maximal increase in transgene expression compared to when no essential metal element was added: HeLa, scAAV2-EGFP, 200 vgs per cell, 48 hours after infection; for maximal increase in transgene expression compared to when no essential metal element was added: at the concentration of maximal increase; for target blood concentration determined from the concentration of greatest improvement of AAV transduction efficiency in vitro: based on FIGS. 1H, 1F, 1C, 1I; for improvement of AAV transduction efficiency: cells infected with rAAV, metal alone or in combination (FIG. 2B)
Description: In an initial set of experiments, HeLa cells were infected with self-complementary AAV2 (scAAV2) comprising nucleic acid encoding EGFP (scAAV2-EGFP) at a multiplicity of infection of 200 viral genomes (vgs) per cell. Thereafter, various essential metal elements were added to the cell cultures at different concentrations. Transduction efficiency was measured 48 hours after infection, by evaluating the expression of EGFP using fluorescent microscopy. Images were analyzed using ImageJ software.

HepG2 cells = experiment: Factor IX expression in HepG2 cells infected with AAV3-Factor IX (Western blot); assay type: cell-based; settings: rAAV3-Factor IX, 20 μg/ml, 3h post infection
Description: HepG2 cells, which express factor IX to a lower degree compared to other cell types, were cultured. They were then either infected with rAAV3 particles carrying nucleic acid encoding Factor IX, or infected with rAAV3 particles carrying nucleic acid encoding Factor IX and treated with 20 μg/ml of ZnCl2. When level of Factor IX expressed in the cells was measured using Western blot analysis after the cells there harvest 3h post infection.

Huh7 cells [2] = experiment: Zn2+-induced cytotoxicity in Huh7 cells (mock-transfected); assay type: cell-based, human
CCK8 cells = experiment: AAV2-mCherry transduction efficiency versus cell viability with varying zinc; assay type: cell-based; settings: varying concentrations of zinc (FIG. 5)
Description: FIG. 5 provides an overlap of AAV transduction efficiency data and cell viability data from experiments in which CCK8 cells were transduced with AAV2 comprising mCherry encoding nucleic acid and treated with varying concentrations of zinc. […] FIGS. 6, 7, and 8 show similar data for HEK293 cells, HeLa cells, and HepG2 cells.

HeLa cells = experiment: Zn2+-induced cytotoxicity in HeLa cells; assay type: cell-based
[3] = system: Huh7 cells infected with scAAV3-EGFP; experiment: Percentage of Huh7 cells transduced by scAAV3-EGFP (flow cytometry); assay type: cell-based, human; settings: different concentrations, flow cytometry (FIG. 4)
Description: Huh7 cells were infected with self-complementary AAV3 (scAAV3) comprising nucleic acid encoding EGFP (scAAV3-EGFP). Thereafter, zinc chloride was added to the cell cultures at different concentrations. Transduction efficiency was measured by evaluating the expression of EGFP using flow cytometry.

[4] = system: ZIP14 over-expressing Huh7 cells; experiment: Zn2+ effects in Huh7 cells over-expressing ZIP14, transduced with scAAV2-mCherry; assay type: cell-based, human
Description: The effect of metal ion (e.g., zinc) on the transduction efficiency of AAV vectors may be due to free floating zinc, because the increase in transduction occurs when the cell has taken up zinc to the point where extracellular accumulation occurs. […] ZIP14 is a metal ion transporter that primarily transports zinc into cells.
(§1) Therefore, targeting ZIP14-deficient HCC tumors would be ideal for Zn2+ infusions due to their tendency to prevent zinc uptake, and therefore, increase the level of environmental Zn2+. To test this hypothesis, Huh7 cells were either mock-transfected, or transfected with a recombinant plasmid containing a CMV promoter-driven ZIP14-EGFP fusion protein, and were transduced with scAAV2-mCherry vectors under identical conditions.

Huh7 cells [5] = experiment: Transgene expression of rAAV2-mCherry in Huh7 cells with zinc; assay type: cell-based, human; settings: 15 μg/ml of Zn2+
Description: as §1

Compound | concentration giving maximal increase in transgene expression [1] | maximal increase in transgene expression compared to when no essential metal element was added [1] [fold] | target blood concentration determined from the concentration of greatest improvement of AAV transduction efficiency in vitro [1] [µg/mL] | improvement of AAV transduction efficiency [1] [fold] | level of Factor IX expression compared to cells not treated with metal elements (HepG2 cells) | concentrations found to be cytotoxic (Huh7 cells [2]; Huh7 cells) | Zn2+-induced cytotoxicity (Huh7 cells [2]; mock-treated Huh7 cells, final concentration of 20 μg/ml) | rAAV transduction efficiency versus cell viability (CCK8 cells) | concentration inducing significant cytotoxicity (HeLa cells) | percentage of cells transduced by the scAAV3-EGFP vector [3] | increase in transgene expression ([1]; HeLa cells, final concentration of 30 μg/ml) [fold] | zinc-induced improvement of rAAV transduction efficiency ([4]; Huh7 cells transfected with a ZIP14 gene) | Zn2+-induced cytotoxicity ([4]; ZIP14 over-expressing Huh7 cells, final concentration of 20 μg/ml) | increase in the transgene expression (Huh7 cells [5]) [fold]
[Cl][Ni][Cl] [nickel chloride] | 20 µg/mL | ~3 | 200 | ~2 | – | – | – | – | – | – | – | – | – | –
[Cl-].[Cl-].[Zn+2] [zinc chloride] | 30 µg/mL | ~8 | 30 | ~8 | greater level of Factor IX expression | exceeding 20 μg/ml | not mock-treated Huh7 cells, evaded Zn2+-induced cytotoxicity | drop in rAAV transduction efficiency correlates with cell viability | exceeding 30 μg/ml | increases with increasing concentration of zinc chloride | ~8 | reduction in the zinc-induced improvement of rAAV transduction efficiency | evaded Zn2+-induced cytotoxicity | ~7
[Cl-].[Cl-].[Mg+2] [magnesium chloride] | approximately 100 μg/ml | ~2 | 100 | – | – | – | – | – | – | – | – | – | – | –
[Cl][Co][Cl] [cobalt chloride] | 25 µg/mL | ~2 | 20 to 30 | ~2 | – | – | – | – | – | – | – | – | – | –
